This note sets out measurements from patent US20240246937A1 (MERCK SHARP & DOHME LLC, priority 2021, published 2024).

Broadly, the EC50 is the concentration at which the effect is half-maximal.

Chain of recombinant IL4I1 (Q96RQ9 22-567): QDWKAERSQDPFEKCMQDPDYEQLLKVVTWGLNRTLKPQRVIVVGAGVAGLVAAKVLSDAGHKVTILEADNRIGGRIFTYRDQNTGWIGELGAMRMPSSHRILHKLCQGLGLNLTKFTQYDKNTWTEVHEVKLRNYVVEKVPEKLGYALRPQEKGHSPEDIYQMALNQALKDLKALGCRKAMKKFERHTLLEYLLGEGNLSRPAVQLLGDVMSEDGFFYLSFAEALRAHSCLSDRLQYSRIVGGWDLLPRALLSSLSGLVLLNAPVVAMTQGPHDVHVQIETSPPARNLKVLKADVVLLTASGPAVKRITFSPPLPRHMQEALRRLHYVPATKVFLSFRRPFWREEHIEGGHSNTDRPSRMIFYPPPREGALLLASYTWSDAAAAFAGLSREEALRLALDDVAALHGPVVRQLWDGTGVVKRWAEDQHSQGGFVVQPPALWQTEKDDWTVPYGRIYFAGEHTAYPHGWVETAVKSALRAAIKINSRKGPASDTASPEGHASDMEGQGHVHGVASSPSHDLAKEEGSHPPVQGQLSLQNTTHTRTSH

This assay has as its target recombinant IL4I1 (Homo sapiens (Human), UniProt Q96RQ9). In words: IL4I1 Enzymatic Assay (Amplex Red/HRP coupled fluorescence detection of H2O2). The following applies: 240 min; recombinant IL4I1, four-hour pre-incubation with compound. It is filed as biochemical. In a few lines:
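Recombinant human IL4I1 (1 nM final) pre-incubated 4 h with compound at ambient temperature in 50 mM Hepes pH 7.0, 0.005% Tween20. Started with 1 mM each Phe/Tyr/Trp plus Amplex Red/HRP; H2O2-derived resorufin fluorescence read after 120 min; EC50 from ten-point 1:3 titration, four-parameter fit.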
In the case of `O=c1c(=O)n([C@H]2C[C@H]3C[C@H]3C2)ccn1Cc1ccc(-c2cccnc2)nn1` [Example 416, 1-((cis)-bicyclo[3.1.0]hexan-3-yl)-4-((6-(pyridin-3-yl)pyridazin-3-yl)methyl)-1,4-dihydropyrazine-2,3-dione], the EC50 turned out to be 28 nM.

Take `O=c1c(=O)n(C23CC(C2)C3)ccn1Cc1cc(-c2cccc(F)c2)on1` [Example 417, 1-(bicyclo[1.1.1]pentan-1-yl)-4-((5-(3-fluorophenyl)isoxazol-3-yl)methyl)-1,4-dihydropyrazine-2,3-dione]: the EC50 came out at 2 nM.

As to `O=C1C(=O)N(C23CC(C2)C3)CCN1Cc1cc(-c2ccc(F)cc2)on1` [Example 418, 1-(bicyclo[1.1.1]pentan-1-yl)-4-((5-(4-fluorophenyl)isoxazol-3-yl)methyl)piperazine-2,3-dione], the 50% effective concentration (EC50) worked out at 6 nM.

In the case of `O=c1c(=O)n(C23CC(C2)C3)ccn1Cc1cc(-c2ccc(F)cc2)on1` [Example 419, 1-(bicyclo[1.1.1]pentan-1-yl)-4-((5-(4-fluorophenyl)isoxazol-3-yl)methyl)-1,4-dihydropyrazine-2,3-dione], the EC50 amounted to 2 nM.

For `CC1(n2ccn(Cc3cc(-c4ccccc4)on3)c(=O)c2=O)CCC1` [Example 420, 1-(1-methylcyclobutyl)-4-((5-phenylisoxazol-3-yl)methyl)-1,4-dihydropyrazine-2,3-dione], the EC50 was 5 nM.

With `CC1(n2ccn(Cc3cc(-c4cccc(F)c4)on3)c(=O)c2=O)CCC1` [Example 421, 1-((5-(3-fluorophenyl)isoxazol-3-yl)methyl)-4-(1-methylcyclobutyl)-1,4-dihydropyrazine-2,3-dione], the EC50 is 5 nM.

`CC1(n2ccn(Cc3cc(-c4ccc(F)cc4)on3)c(=O)c2=O)CCC1` [Example 422, 1-((5-(4-fluorophenyl)isoxazol-3-yl)methyl)-4-(1-methylcyclobutyl)-1,4-dihydropyrazine-2,3-dione]: the EC50 amounted to 5 nM.

`N#Cc1ccc(-c2cc(CN3CCN(C45CC(C4)C5)C(=O)C3=O)no2)cc1` [Example 423, 4-(3-((4-(bicyclo[1.1.1]pentan-1-yl)-2,3-dioxopiperazin-1-yl)methyl)isoxazol-5-yl)benzonitrile]: the EC50 was determined as 19 nM.

With `N#Cc1ccccc1-c1cc(CN2CCN(C34CC(C3)C4)C(=O)C2=O)no1` [Example 424, 2-(3-((4-(bicyclo[1.1.1]pentan-1-yl)-2,3-dioxopiperazin-1-yl)methyl)isoxazol-5-yl)benzonitrile], the EC50 stood at 19 nM.

Take `O=C1C(=O)N(C2CCC2)CCN1Cc1ncc(-c2cccc(F)c2)s1` [Example 425, 1-cyclobutyl-4-((5-(3-fluorophenyl)thiazol-2-yl)methyl)piperazine-2,3-dione]: the 50% effective concentration (EC50) was determined as 8 nM.

Regarding `O=C1C(=O)N(C2CCC2)CCN1Cc1ncc(-c2ccccc2F)s1` [Example 426, 1-cyclobutyl-4-((5-(2-fluorophenyl)thiazol-2-yl)methyl)piperazine-2,3-dione], the concentration for a half-maximal effect (EC50) amounted to 5 nM.

For `O=c1c(=O)n(C23CC(C2)C3)ccn1Cc1cn(-c2ccccn2)nn1` [Example 427, 1-(bicyclo[1.1.1]pentan-1-yl)-4-((1-(pyridin-2-yl)-1H-1,2,3-triazol-4-yl)methyl)-1,4-dihydropyrazine-2,3-dione], the EC50 amounted to 19 nM.

Take `O=c1c(=O)n(C23CC(C2)C3)ccn1Cc1cn(-c2cccnc2)nn1` [Example 428, 1-(bicyclo[1.1.1]pentan-1-yl)-4-((1-(pyridin-3-yl)-1H-1,2,3-triazol-4-yl)methyl)-1,4-dihydropyrazine-2,3-dione]: the EC50 stood at 21 nM.

As for `CC1(n2ccn(Cc3cn(-c4cccnc4)nn3)c(=O)c2=O)CC1` [Example 429, 1-(1-methylcyclopropyl)-4-((1-(pyridin-3-yl)-1H-1,2,3-triazol-4-yl)methyl)-1,4-dihydropyrazine-2,3-dione], the concentration giving a half-maximal response (EC50) stood at 29 nM.
